Measurements reported in patent US20030087830A1, “Low molecular weight components of cartilage, complexes of metals with amino acids, DI-peptides and analogs thereof; processes for preparation and therapeutic uses thereof” (priority 2001, published 2003).
Residues, ends and D or L forms follow the SMILES beside them.

Assays:
[1] = tested on: blood vessel formation in the vitelline membrane of chick embryo; test: Embryonic Vascularization Test (EVT); format: in vivo; conditions: for EVT activity (in words): in vivo
Description: The Embryonic Vascularization Test (EVT) was performed to determine the ability of test samples to inhibit the formation of new blood vessels (antiangiogenic activity).
The normal development of a chick embryo involves the formation of an external vascular system located in the vitelline membrane which carries nutrients from the vitellus (yolk) to the developing embryo. When placed onto the vitelline membrane, antiangiogenic substances can inhibit the blood vessel formation that occurs in the vitelline membrane. Briefly, methylcellulose discs (an inert solid and transparent matrix) containing different test samples were placed on the external border of the vascular perimeter of the vitelline membrane, where the angiogenic process occurs. Vascularization was assessed 24 hours after disc deposition, and results were expressed as the percent of embryos in which blood vessel formation was affected. The blood vessel formation was considered affected when its growing path was either deviated, or diminished or when there was no growth observed beyond the disc as compared to the negative control. The results are expressed as 0, +, and ++ where 0 is for a lower response than 25 percent of the eggs; + is for a response between 25 and 50 percent; and ++ is for an antiangiogenic response observed in more than 50 percent of the eggs.
(§1) According to the endothelial cell proliferation assay, the relative effectiveness of two compounds is compared by reference to the EC50 thereof. The EC50 is the concentration of compound at which the number of endothelial cells is reduced by 50% as compared to control. The efficacy of the test samples in EVT is established by the percent of eggs with altered angiogenesis at a given inhibitor dose of 0.6 mg of copper equivalent (see FIG. 6 for examples). A comparison of the antiangiogenic activity of the compounds of the present invention with divalent metal salts (CuCl2, MgCl2, ZnCl2, CoCl2) and uncoupled alpha-amino acids, alpha-imino acids, dipeptides, and nitrogenated molecules comprising a carboxylic acid group, such as creatine, is provided to illustrate that the formation of the amino acid-copper complex gives rise to complexes having antiangiogenic activity.

[2] = tested on: Endothelial cells (HUVEC, BAEC); test: Endothelial cell proliferation; format: cell-based, human / bovine; conditions: for EC50: 48 hours, copper equivalent, NA = less than 50% at 1.25 mM copper equivalent, read-out: EC proliferation (EC50 mM)
Description: (§2) Endothelial and tumor cell proliferation assays were performed to determine the ability of test samples to inhibit endothelial cell proliferation (antiangiogenic activity), normal cell proliferation,and tumor cell proliferation.
(§3) Endothelial cells (Human umbilical vein endothelial cells (HUVEC), bovine aortic endothelial cells (BAEC)), skeletal muscle cells, human dermal fibroblasts (all from Clonetics, Walkersville, Md.) were respectively maintained in EBM-2, MDEM, SKGM and FGFM-2 complete media according to manufacturer's instructions. Tumor rat glioblastoma cell line (C6) was maintained in DMEM (Sigma, Oaksville, Ontario) supplemented with 10% fetal calf serum (FCS) and antibiotics in 5% CO2. Briefly, cells seeded in 96-well sterile tissue culture dishes were treated with increasing concentrations of different test samples for a period of 48 hours at 37° C. Cell number was then evaluated by a calorimetric assay using the cell proliferation reagent tetrazolium salt and the fluorimetric assay using DNA dye (Hoescht) according to the procedure established by the manufacturer (Boehringer Mannhein). The conversion of these tetrazolium salts into formazan occurs only in metabolically active cells. The percentage of cell inhibition was determined by comparison to untreated cells.
as §1

Endothelial cells [3] = test: Endothelial cell migration assay (VEGF, modified Boyden chamber); format: cell-based; conditions: for Cell Migration (% inhibition): copper complexes, concentration not given, VEGF, 4.5 hours
Description: The endothelial cell migration assay was performed to determine the ability of test samples to inhibit the chemotaxic activity of vascular endothelial growth factor (VEGF;R/D System, MN) using a modified Boyden chamber (Transwell™, Corning/Costar). Briefly, polyvinylidene difluoride filters (PVDF) were coated with Pronectin F (Biosources, CA), a constituent of basement membrane barrier. Boyden chambers were assembled by adding VEGF to the culture media in the lower chamber (chemoattractant). Endothelial cells suspended in cultured media in the presence or the absence of the test samples were added to the upper chamber. The chambers were then incubated for a period of 4.5 hours at 37° C. At the end of the incubation period, the cells from both side of the PVDF membrane were fixed with 3.7% formaldehyde. Cells from the upper surface of the membrane were mechanically removed, and the cells remaining on the underside of the membrane were stained with crystal violet (0.5%; Sigma). Cells were then carefully rinsed and the dye fixed to the cells was quantified with a microplate reader ([…]) after its solubilization with a solution of 50% citric acid (0.1M) in water and 50% ethanol.

Endothelial cells [4] = test: Endothelial cell tubule formation assay (tubulogenesis); format: cell-based; design: key to Tubulogenesis: 0: Numerous capillary-like tube forming pentagonal network; +: Decrease of capillary-like tubes; ++: Dramatic decrease of capillary-like tubes; +++: Absence of capillary-like tubes
Description: The endothelial cell tubule formation assay is a semi-quantitative assay that was performed to determine the ability of test samples to inhibit this multi-step process, which involves cell adhesion, migration, differentiation and growth, using a commercial kit (Chemicon). Briefly, endothelial cells were seeded on solid gel of Ecmatrix™ (Chemicon), basement proteins prepared from the Engelbreth Holm-Swarm (EHS) mouse tumor in microplate in a E-99 media (Sigma) supplemented with 5% FBS and VEGF (50 ng/ml) in the presence or absence of the test sample. Cells were incubated for a period of 24 hours at 37° C. Pictures were taken on the entire tissue culture dish using a binocular microscope for further evaluation.

[5] = tested on: Lewis lung carcinoma clone M27; test: Lewis Lung Carcinoma metastatic mouse model (LLC); format: in vivo, C57BL/10 female mice; conditions: for Antimetastatic activity (% inhibition) (at 2.5 mg/kg of Cu-complex): intraperitoneal daily for two weeks, lung surface metastases
Text: The Lewis Lung Carcinoma mouse model (LLC) was used to determine the ability of different test samples to inhibit the formation of metastases within the lung. The Lewis lung carcinoma clone M27, with a high metastatic potential to the lung, was established by Dr P. Brodt (Brodt P, Characterization of two highly metastatic variants of Lewis lung carcinoma with different organ specificities. Cancer Res., 46: 2442, 1986). This model is well established and is known for its predictive correlation between in vitro and in vivo activity. Briefly, LLC cells were transplanted subcutaneously in the axillary region of the right flank of C57BL/10 female mice (Charles River Inc.) When the primary tumor reached a size of 0.5-1.0 cm^3 (day 10 post-inoculation), the tumor was carefully separated from the surrounding healthy tissues. Treatment with different test samples started the day following tumor removal (day 11 post-inoculation). Saline or different test samples were administered daily for two weeks by intraperitoneal injection (0.2 ml of each dose). As previous experiments had shown that a period of approximately two weeks after removal of the primary tumor was sufficient to obtain an average of 30 to 50 nodules on the lung surface, animals were sacrificed in a CO2 chamber two weeks later. Following autopsy, both lungs were removed, weighed and fixed in 10% Bouin's fixative. Lung surface metastases were counted using a stereomicroscope (4×).

human dermal fibroblasts = test: Fibroblast proliferation; format: cell-based; conditions: 48 hours; free amino acids and Glu-Trp 2.5 mM, CuCl2 1.25 mM
Description: as §2, §3

[6] = tested on: Striated muscle cells (skeletal muscle cells); test: Striated muscle cell proliferation; format: cell-based; conditions: 48 hours; free amino acids and Glu-Trp 2.5 mM, CuCl2 1.25 mM
Description: as §2, §3

[7] = tested on: bFGF-stimulated blood vessel formation in Matrigel; test: Matrigel in vivo angiogenesis assay; design: species or system C57B1/6 mice; conditions: for Matrigel in vivo % inhibition: intra-peritoneal daily 10 days
Description: The Matrigel™ in vivo assay was performed to determine the ability of test samples to inhibit blood vessel formation (antiangiogenic activity) and to establish their bioavailability in vivo.
Briefly, liquid Matrigel™ (Becton Dickinson, Bedford, Mass.) was maintained at 4° C. and mixed thoroughly for at least 3 hours with 1,500 ng/ml basic fibroblast growth factor (bFGF) (R&D Systems, Minneapolis, Minn.) used as the primary angiogenic stimulus. The mixture (0.5 ml) was injected subcutaneously into the ventral midline of C57B1/6 mice, and treatment with different test samples or saline solution was initiated the same day. Additional animals were also injected with Matrigel™ containing no bFGF to serve as baseline controls. The animals were treated daily for a 10 day period (intra-peritonealy, 0.2 ml of each dose). At day 11, animals were injected with FITC-dextran 20 min prior to euthanizing treated mice. Matrigel™ gels were removed along with underlying peritoneum and prepared for FITC-dextran detection by fluorimetry. The concentration of FITC-dextran in the gels was calculated from a known concentration of FITC-dextran using a standard curve. The FITC-dextran content of the gels from compound-treated animals and controls was expressed as a percent of the positive bFGF-treated controls after the baseline control of FITC-dextran levels were subtracted from all groups.

[8] = Affinity of the amino acid with copper; format: physicochemical
[9] = activity at 0.6 mg equivalent Copper
[10] = copper complexes, concentration not given, VEGF 50 ng/ml, 24 hours

| Compound | EVT (% of inhibition) [1, 9] | EVT activity (in words) [1] | Endothelial cell proliferation activity (in words) [2] | Cell migration activity (in words) (Endothelial cells [3]) | inhibition at 2500 µM (Endothelial cells [3]; Endothelial cell, 2.5 mM free (not complexed) ligand) [%] | Tubulogenesis activity (in words) (Endothelial cells [4]) | Tubulogenesis (Endothelial cells [4]; 2.5 mM free (not complexed) ligand) | Antimetastatic activity (% inhibition) (at 2.5 mg/kg of Cu-complex) [5] [%] | EVT (% of inhibition) ([1]; 0.6 mg copper equivalent, percent of embryos with affected blood vessel formation, 24 hours after disc deposition) [%] | EC50 [2] [mM] | EC50 (human dermal fibroblasts) [mM] | EC50 [6] [mM] | Cell Migration (% inhibition) (Endothelial cells [3]) [%] | Tubulogenesis (Endothelial cells [4]; [10]) | Anti-metastatic activity in vivo (in words) ([5]; mouse, in vivo) | Matrigel in vivo % inhibition ([7]; 1.4 mg/Kg equivalent copper) [%] | Matrigel in vivo % inhibition ([7]; 7.0 mg/Kg equivalent copper) [%] | Affinity of the AA with Cooper [8] | Matrigel in vivo antiangiogenic activity (in words) ([7]; mouse, in vivo) |
| --- | --- | --- | --- | --- | --- | --- | --- | --- | --- | --- | --- | --- | --- | --- | --- | --- | --- | --- | --- |
| N[C@@H](CCC(=O)O)C(=O)N[C@@H](Cc1c[nH]c2ccccc12)C(=O)O [Free Glu-Trp, glutamyl-tryptophane, reference compound] (H-Glu-Trp-OH) | 0 (0 non-active (less than 25% of inhibition)) | almost inactive | almost inactive | did not show any activity | 10 | did not show any activity | 0 | 22.8 | – | – | – | – | – | – | – | – | – | – | – |
| (Glu—Trp)2-Cu [Compound 33] | ++ (++ more than 50% of inhibition) | – | – | important activity | – | important activity | – | 44 | 60 | 0.23 | 0.66 | 0.47 | 96 | +++ | more active than the free di-peptide | – | – | – | – |
| C[C@@H](O)[C@H](N)C(=O)[O-].C[C@@H](O)[C@H](N)C(=O)[O-].[Cu+2] [Compound 5, L-Thr:Cu:L-Thr] | ++ (++ more than 50% of inhibition) | – | – | important activity | – | important activity | – | – | – | 0.3 | 1.34 | – | 90 | ++ | – | 47.7 | 59.4 | 15.4 | – |
| N[C@@H](Cc1c[nH]cn1)C(=O)[O-].N[C@@H](Cc1c[nH]cn1)C(=O)[O-].[Cu+2] [Compound 10, L-His:Cu:L-His] | 0 (0 non-active (less than 25% of inhibition)) | inactive | inactive | did not show any activity | – | did not show any activity | – | 63.0 | – | 0.9 | – | – | 65 | 0 | – | – | 63.4 | 19.4 | more active than compound 6 |
